In ChEMBL document CHEMBL3124787, “Discovery of novel bis-oxazolidinone compounds as potential potent and selective antitubercular agents” (Bioorg Med Chem Lett, 2014):

Key:
Assay type in all cases: functional
[1] = tested on: Mycobacterium tuberculosis; assay: Antitubercular activity against multidrug-resistant Mycobacterium tuberculosis clinical isolate 3 assessed as growth inhibition by microdilution method
[2] = tested on: Mycobacterium tuberculosis; assay: Antitubercular activity against isoniazid-resistant Mycobacterium tuberculosis H37RV clinical isolate 1 assessed as growth inhibition by microdilution method; settings: H37Rv isolate 1
[3] = tested on: Mycobacterium tuberculosis; assay: Antitubercular activity against extensive drug-resistant Mycobacterium tuberculosis clinical isolate 7 assessed as growth inhibition by microdilution method
[4] = tested on: Mycobacterium tuberculosis; assay: Antitubercular activity against extensive drug-resistant Mycobacterium tuberculosis clinical isolate 4 assessed as growth inhibition by microdilution method
[5] = tested on: Mycobacterium tuberculosis; assay: Antitubercular activity against extensive drug-resistant Mycobacterium tuberculosis clinical isolate 6 assessed as growth inhibition by microdilution method
[6] = tested on: Mycobacterium tuberculosis; assay: Antitubercular activity against multidrug-resistant Mycobacterium tuberculosis clinical isolate 2 assessed as growth inhibition by microdilution method
[7] = tested on: Mycobacterium tuberculosis; assay: Antitubercular activity against extensive drug-resistant Mycobacterium tuberculosis clinical isolate 5 assessed as growth inhibition by microdilution method
[8] = tested on: Mycobacterium tuberculosis; assay: Ratio of MIC for compound to linezolid for multidrug-resistant Mycobacterium tuberculosis
[9] = tested on: Mycobacterium tuberculosis; assay: Ratio of MIC for compound to linezolid for extensive drug-resistant Mycobacterium tuberculosis

| SMILES | MIC [1] | MIC [2] | MIC [3] | MIC [4] | MIC [5] | MIC [6] | MIC [7] | Ratio [8] | Ratio [9] |
| --- | --- | --- | --- | --- | --- | --- | --- | --- | --- |
| NNC(=O)c1ccncc1 [ISONIAZID] | 2 µg/mL | 2 µg/mL | 8 µg/mL | 2 µg/mL | 4 µg/mL | 8 µg/mL | 4 µg/mL | – | – |
| COc1ccc(N2C[C@@H](COc3ccc(N4C[C@H](CNC(C)=O)OC4=O)cc3F)OC2=O)cc1 | 4 µg/mL | 4 µg/mL | 8 µg/mL | 4 µg/mL | 2 µg/mL | 4 µg/mL | 4 µg/mL | >20 | >20 |
| CC(=O)NC[C@H]1CN(c2ccc(OC[C@@H]3CN(c4ccccc4)C(=O)O3)c(F)c2)C(=O)O1 | 4 µg/mL | 8 µg/mL | 8 µg/mL | 4 µg/mL | 2 µg/mL | 4 µg/mL | 4 µg/mL | >20 | >20 |
| CC(=O)NC[C@H]1CN(c2ccc(N3CCOCC3)c(F)c2)C(=O)O1 [LINEZOLID] | 0.25 µg/mL | 0.25 µg/mL | 0.25 µg/mL | 1 µg/mL | 0.25 µg/mL | – | 0.25 µg/mL | – | – |
